Measured values from patent US8841312B2, “Fused pyridine, pyrimidine and triazine compounds as cell cycle inhibitors” (Amgen Inc., priority 2007, dated 2014).

Legend:
Cdk4/CyclinD1 = Cdk4/CyclinD1 (Homo sapiens (Human), UniProt P11802); assay: Cdk4 kinase inhibition assay with recombinant Cdk4/CyclinD1, Rb substrate, [33P]-ATP filter plate; type: biochemical; conditions: 25 μM ATP, read-out: Cdk 4 IC50
Method in brief: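 Recombinant Cdk4/CyclinD1 or Cdk6/CyclinD3 phosphorylated Rb protein with [33P]-ATP for 1 h at room temperature. Protein was TCA-precipitated on filter plates and bound radioactivity counted. IC50 by nonlinear regression.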

Cdk6/CyclinD3 = Cdk6/CyclinD3 (Homo sapiens (Human), UniProt Q00534); assay: Cdk6 kinase inhibition assay with recombinant Cdk6/CyclinD3, Rb substrate, [33P]-ATP filter plate; type: biochemical; conditions: 25 μM ATP, read-out: Cdk 6 IC50
Protocol: The Cdk4 and Cdk6 inhibitory activity of the compounds is measured with a kinase inhibition assay using recombinant Cdk4/CyclinD1 or Cdk6/CyclinD3 protein complexes. The protein substrate used in the assay is the retinoblastoma protein (Rb). The kinase reactions are carried out in a 96-well filter plate (MSDV N6B50, Millipore). […] The mixture is incubated at room temperature for 1 hour and the proteins precipitated with an equal volume of 20% TCA. The plates are washed with 10% TCA according to the manufacturer's instruction and dried at room temperature. The amount of the phosphorylated Rb is determined with a TopCount (PerkinElmer). The IC50 of a compound is determined by nonlinear regression curve fitting using software program Prism 5 (GraphPad Software).

Chain of Cdk6/CyclinD3 (Q00534 whole entry): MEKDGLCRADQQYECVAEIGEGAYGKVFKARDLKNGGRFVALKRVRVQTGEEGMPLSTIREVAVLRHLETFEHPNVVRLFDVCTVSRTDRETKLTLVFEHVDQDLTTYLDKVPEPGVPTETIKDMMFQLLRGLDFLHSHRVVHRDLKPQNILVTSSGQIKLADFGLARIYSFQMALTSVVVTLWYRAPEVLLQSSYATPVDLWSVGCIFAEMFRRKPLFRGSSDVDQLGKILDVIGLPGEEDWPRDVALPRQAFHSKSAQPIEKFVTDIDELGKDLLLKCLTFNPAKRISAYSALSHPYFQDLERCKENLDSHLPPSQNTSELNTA
Chain of Cdk6/CyclinD3 (P30281 whole entry partner): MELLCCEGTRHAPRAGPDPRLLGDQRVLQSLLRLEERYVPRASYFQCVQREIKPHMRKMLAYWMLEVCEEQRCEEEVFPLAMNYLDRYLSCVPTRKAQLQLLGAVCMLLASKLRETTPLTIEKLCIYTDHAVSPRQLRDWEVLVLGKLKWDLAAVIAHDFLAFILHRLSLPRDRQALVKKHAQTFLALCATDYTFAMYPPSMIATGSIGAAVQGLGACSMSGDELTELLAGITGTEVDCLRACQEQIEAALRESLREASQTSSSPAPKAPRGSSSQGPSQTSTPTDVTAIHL
Chain of Cdk4/CyclinD1 (P11802 whole entry): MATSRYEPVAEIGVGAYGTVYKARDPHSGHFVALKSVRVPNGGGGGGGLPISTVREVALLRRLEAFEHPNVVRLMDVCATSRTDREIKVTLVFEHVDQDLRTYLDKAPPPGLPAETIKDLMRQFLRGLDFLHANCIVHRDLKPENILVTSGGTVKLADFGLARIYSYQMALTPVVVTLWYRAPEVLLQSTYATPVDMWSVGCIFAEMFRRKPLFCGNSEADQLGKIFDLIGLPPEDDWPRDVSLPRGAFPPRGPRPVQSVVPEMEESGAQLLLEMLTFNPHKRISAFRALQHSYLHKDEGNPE
Chain of Cdk4/CyclinD1 (P24385 whole entry partner): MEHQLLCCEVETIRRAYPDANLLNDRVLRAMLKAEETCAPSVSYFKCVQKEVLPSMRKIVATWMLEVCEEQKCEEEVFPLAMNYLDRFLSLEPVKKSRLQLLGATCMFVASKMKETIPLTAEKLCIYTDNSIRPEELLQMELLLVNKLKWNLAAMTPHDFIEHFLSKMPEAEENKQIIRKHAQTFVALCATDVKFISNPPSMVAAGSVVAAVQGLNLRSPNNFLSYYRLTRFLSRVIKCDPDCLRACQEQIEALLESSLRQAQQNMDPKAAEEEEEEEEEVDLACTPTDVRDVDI

SMILES | IC50 (Cdk4/CyclinD1) [µM] | IC50 (Cdk6/CyclinD3) [µM]
COc1cc2c3cnc(Nc4ccc(N5CCNCC5)cn4)nc3n(C3CCCC3)c2cn1 [Example 42, (9-Cyclopentyl-6-methoxy-9H-pyrido[4′,3′:4,5]pyrrolo[2,3-d]pyrimidin-2-yl)-(5-piperazin-1-yl-pyridin-2-yl)-amine] | 0.237 | 0.5
Oc1cc2c3cnc(Nc4ccc(N5CCNCC5)cn4)nc3n(C3CCCC3)c2cn1 [Example 43, 9-Cyclopentyl-2-(5-piperazin-1-yl-pyridin-2-ylamino)-9H-pyrido[4′,3′:4,5]pyrrolo[2,3-d]pyrimidin-6-ol] | 0.136 | 0.218
OCC1(n2c3cnccc3c3cnc(Nc4ccc(N5CCNCC5)cn4)nc32)CCCC1 [Example 44, {1-[2-(5-piperazin-1-yl-pyridin-2-ylamino)-pyrido[4′,3′:4,5]pyrrolo[2,3-d]pyrimidin-9-yl]-cyclopentyl}-methanol] | 0.011 | 0.025
CC(C)(CO)Cn1c2cnccc2c2cnc(Nc3ccc(N4CCNCC4)cn3)nc21 [Example 45, 2,2-Dimethyl-3-[2-(5-piperazin-1-yl-pyridin-2-ylamino)-pyrido[4′,3′:4,5]pyrrolo[2,3-d]pyrimidin-9-yl]-propan-1-ol] | 0.073 | 0.129
O=C(c1cnc(Nc2ncc3c4ccncc4n(C4CCCC4)c3n2)s1)N1CCNCC1 [Example 50, 9-cyclopentyl-N-(5-(1-piperazinylcarbonyl)-1,3-thiazol-2-yl)-9H-pyrido[4′,3′:4,5]pyrrolo[2,3-d]pyrimidin-2-amine] | 0.066 | 0.112
Cc1cc(N2CCNCC2)cnc1Nc1ncc2c3ccncc3n(C3CCCC3)c2n1 [Example 51, 9-cyclopentyl-N-(3-methyl-5-(1-piperazinyl)-2-pyridinyl)-9H-pyrido[4′,3′:4,5]pyrrolo[2,3-d]pyrimidin-2-amine] | 0.126 | 0.406
COc1nccc2c3cnc(Nc4ccc(N5CCNCC5)cn4)nc3n(C3CCCC3)c12 [Example 52, 9-cyclopentyl-8-(methyloxy)-N-(5-(1-piperazinyl)-2-pyridinyl)-9H-pyrido[4′,3′:4,5]-pyrrolo[2,3-d]pyrimidin-2-amine] | 0.012 | 0.022
O=c1[nH]ccc2c3cnc(Nc4ccc(N5CCNCC5)cn4)nc3n(C3CCCC3)c12 [Example 53, 9-Cyclopentyl-2-((5-(1-piperazinyl)-2-pyridinyl)amino)-7,9-dihydro-8H-pyrido[4′,3′:4,5]-pyrrolo[2,3-d]pyrimidin-8-one] | 0.0047 | 0.011
Cc1nccc2c3cnc(Nc4ccc(N5CCNCC5)cn4)nc3n(C3CCCC3)c12 [Example 54, 9-cyclopentyl-8-methyl-N-(5-(1-piperazinyl)-2-pyridinyl)-9H-pyrido[4′,3′:4,5]pyrrolo[2,3-d]pyrimidin-2-amine] | 0.02 | 0.047
O=S1(=O)CCC(Nc2ccc(Nc3ncc4c5ccncc5n(C5CCCC5)c4n3)nc2)C1 (stereo not shown) [Example 65] | 0.0096 | 0.024
O=S1(=O)CCN(c2ccc(Nc3ncc4c5ccncc5n(C5CCCC5)c4n3)nc2)CC1 [Example 66] | 0.0054 | 0.073
c1cc2c3cnc(Nc4ccc(NC5CCNCC5)cn4)nc3n(C3CCCC3)c2cn1 [Example 69] | 0.017 | 0.031
O=S1(=O)CCN(c2ccc(Nc3ncc4c5ccncc5n(C5CCCC5)c4n3)nn2)CC1 [Example 94] | 0.0049 | 0.0092
c1cc2c3cnc(Nc4ccc(NC5CCNCC5)nn4)nc3n(C3CCCC3)c2cn1 [Example 96] | 0.0162 | 0.0124
c1cc2c3cnc(Nc4ccc(NCC5CNC5)nn4)nc3n(C3CCCC3)c2cn1 [Example 97] | 0.43 | 0.396
OCC1CCN(c2ccc(Nc3ncc4c5ccncc5n(C5CCCC5)c4n3)nn2)CC1 [Example 103] | 0.0056 | 0.0026
O[C@H]1CCCN(c2ccc(Nc3ncc4c5ccncc5n(C5CCCC5)c4n3)nn2)C1 [Example 105] | 0.0067 | 0.0071
c1cc2c3cnc(Nc4ccc(N5CCCCC5)nn4)nc3n(C3CCCC3)c2cn1 [Example 107] | 0.0084 | 0.048
N[C@H]1CCN(c2ccc(Nc3ncc4c5ccncc5n(C5CCCC5)c4n3)nn2)C1 [Example 108] | 0.012 | 0.0157
c1cc2c3cnc(Nc4ccc(N5CCCC5)nn4)nc3n(C3CCCC3)c2cn1 [Example 111] | 0.0044 | 0.0197
c1cc2c3cnc(Nc4ccc(N5CCCNCC5)nn4)nc3n(C3CCCC3)c2cn1 [Example 117] | 0.0055 | 0.0068
CCC(C)(C)n1c2cnccc2c2cnc(Nc3ccc(N4CCC(N(C)C)CC4)nn3)nc21 [Example 156, N-(6-(4-(dimethylamino)-1-piperidinyl)-3-pyridazinyl)-9-(1,1-dimethylpropyl)-9H-pyrido[4′,3′:4,5]pyrrolo[2,3-d]pyrimidin-2-amine] | 0.007 | 0.014
CCC(C)(C)n1c2cnccc2c2cnc(Nc3ccc(N4CCNCC4)cn3)nc21 [Example 157, 9-(1,1-dimethylpropyl)-N-(5-(1-piperazinyl)-2-pyridinyl)-9H-pyrido-[4′,3′:4,5]pyrrolo[2,3-d]pyrimidin-2-amine] | 0.03 | 0.025

Stronger by IC50 (Cdk4/CyclinD1), values ahead:

IC50 (Cdk4/CyclinD1) [µM] | IC50 (Cdk6/CyclinD3) [µM] | SMILES
0.002 | 0.00075 | c1ccc2c(c1)c1cnc(Nc3ccc(N4CCNCC4)cc3)nc1n2C1CCOCC1 [Example 46, (4-piperazin-1-yl-phenyl)-[9-(tetrahydro-pyran-4-yl)-9H-pyrimido[4,5-b]indol-2-yl]-amine]
0.002 | 0.0037 | c1ccc2c(c1)c1cnc(Nc3ccc(N4CCNCC4)cc3)nc1n2C1CCCC1 [Example 47, (9-Cyclopentyl-9H-pyrimido[4,5-b]indol-2-yl)-(4-piperazin-1-yl-phenyl)-amine]
0.0016 | 0.0056 | c1cc2c3cnc(Nc4ccc(N5CCCNCC5)cn4)nc3n(C3CCCC3)c2cn1 [Example 48, 9-cyclopentyl-N-(5-(1,4-diazepan-1-yl)-2-pyridinyl)-9H-pyrido[4′,3′:4,5]pyrrolo[2,3-d]pyrimidin-2-amine]
0.0012 | 0.0044 | CC1CCC(n2c3cnccc3c3cnc(Nc4ccc(N5CCNCC5)cn4)nc32)CC1 (stereo not shown) [Example 55, 9-(4-methylcyclohexyl)-N-(5-(1-piperazinyl)-2-pyridinyl)-9H-pyrido[4′,3′:4,5]pyrrolo[2,3-d]pyrimidin-2-amine]
0.002 | 0.017 | Fc1nccc2c3cnc(Nc4ccc(N5CCNCC5)cn4)nc3n(C3CCCC3)c12 [Example 57, 9-Cyclopentyl-8-fluoro-N-(5-(1-piperazinyl)-2-pyridinyl)-9H-pyrido[4′,3′:4,5]pyrrolo[2,3-d]pyrimidin-2-amine]
0.0034 | 0.02 | c1cc2c3cnc(Nc4ccc(N[C@@H]5CCNC5)cn4)nc3n(C3CCCC3)c2cn1 [Example 63]
0.0028 | 0.024 | c1cc2c3cnc(Nc4ccc(N[C@H]5CCNC5)cn4)nc3n(C3CCCC3)c2cn1 [Example 64]
0.003 | 0.011 | CNC1CCN(c2ccc(Nc3ncc4c5ccncc5n(C5CCCC5)c4n3)nn2)CC1 [Example 77]
0.0031 | 0.0159 | O=S1(=O)CCC(Nc2ccc(Nc3ncc4c5ccncc5n(C5CCCC5)c4n3)nn2)C1 (stereo not shown) [Example 93]
0.0025 | 0.0266 | c1cc2c3cnc(Nc4ccc(NCC5CCNC5)nn4)nc3n(C3CCCC3)c2cn1 (stereo not shown) [Example 98]
0.004 | 0.0088 | NCC1CCN(c2ccc(Nc3ncc4c5ccncc5n(C5CCCC5)c4n3)nn2)CC1 [Example 101, 4-Aminomethyl-1-(6-((9-cyclopentyl-9H-pyrido[4′,3′:4,5]pyrrolo[2,3-d]pyrimidin-2-yl)amino)-3-pyridazinyl)-piperidine]
0.0031 | 0.0111 | OC1CCN(c2ccc(Nc3ncc4c5ccncc5n(C5CCCC5)c4n3)nn2)CC1 [Example 102]
0.0033 | 0.014 | O[C@@H]1CCCN(c2ccc(Nc3ncc4c5ccncc5n(C5CCCC5)c4n3)nn2)C1 [Example 104]
0.004 | 0.0243 | c1cc2c3cnc(Nc4ccc(N5CCOCC5)nn4)nc3n(C3CCCC3)c2cn1 [Example 106]
0.0019 | 0.011 | N[C@@H]1CCN(c2ccc(Nc3ncc4c5ccncc5n(C5CCCC5)c4n3)nn2)C1 [Example 109]
0.0016 | 0.01 | NC1CCN(c2ccc(Nc3ncc4c5ccncc5n(C5CCCC5)c4n3)nn2)CC1 [Example 114]
0.002 | 0.0043 | Clc1nccc2c3cnc(Nc4ccc(N5CCNCC5)cn4)nc3n(C3CCCC3)c12 [Example 152, 8-Chloro-9-cyclopentyl-N-(5-(1-piperazinyl)-2-pyridinyl)-9H-pyrido[4′,3′:4,5]pyrrolo[2,3-d]pyrimidin-2-amine]
0.001 | 0.0028 | CN(C)C1CCN(c2ccc(Nc3ncc4c5ccnc(Cl)c5n(C5CCCC5)c4n3)nc2)CC1 [Example 153, 8-Chloro-9-cyclopentyl-N-(5-(4-(dimethylamino)-1-piperidinyl)-2-pyridinyl)-9H-pyrido[4′,3′:4,5]pyrrolo[2,3-d]pyrimidin-2-amine]
